A short description of test [1]: Luminescence Cell-Based Dose Retest to Confirm Inhibitors of Cancer Stem Cells. [Related pubchem assays (depositor defined):AID2717, AID2721]. It counts as functional. The settings on record: Homo sapiens.
The nature of test [2]: cytotoxicity in HMLE control line with eGFP shRNA, dose response, counter-screen for HMLE_sh_ECad selective toxicity project, cell-based, HMLE_sh_eGFP, luminescence (AID 463074).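 Note: HMLE human mammary epithelial cells expressing control shRNA against eGFP.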 In kind it is functional, Homo sapiens.
The nature of the next test: cells. In kind it is functional.
Test [3] can be described thus: Vero E6 cell cytotoxicity, dose response, cytotoxicity control for non-replicating M. tuberculosis project, secondary assay (AID 492998). The settings on record: Vero C1008. In kind it is functional, VeroE6.
Test [4] is described as follows: THP-1 cell cytotoxicity, dose response, cytotoxicity control for non-replicating M. tuberculosis project (AID 489025). It counts as functional.
Test [5] can be described thus: Counterscreen for AddAB inhibitors: absorbance-based bacterial cell-based high throughput dose response assay for inhibitors of bacterial viability. [Related pubchem assays (depositor defined):AID435030, AID449728, AID449731, AID488942, AID488955, AID488956]. In kind it is functional.
Another test concerns the target T1, Exodeoxyribonuclease V (Escherichia coli (strain K12), UniProt P04993+P07648+P08394).
T1 sequence (P04993 whole entry): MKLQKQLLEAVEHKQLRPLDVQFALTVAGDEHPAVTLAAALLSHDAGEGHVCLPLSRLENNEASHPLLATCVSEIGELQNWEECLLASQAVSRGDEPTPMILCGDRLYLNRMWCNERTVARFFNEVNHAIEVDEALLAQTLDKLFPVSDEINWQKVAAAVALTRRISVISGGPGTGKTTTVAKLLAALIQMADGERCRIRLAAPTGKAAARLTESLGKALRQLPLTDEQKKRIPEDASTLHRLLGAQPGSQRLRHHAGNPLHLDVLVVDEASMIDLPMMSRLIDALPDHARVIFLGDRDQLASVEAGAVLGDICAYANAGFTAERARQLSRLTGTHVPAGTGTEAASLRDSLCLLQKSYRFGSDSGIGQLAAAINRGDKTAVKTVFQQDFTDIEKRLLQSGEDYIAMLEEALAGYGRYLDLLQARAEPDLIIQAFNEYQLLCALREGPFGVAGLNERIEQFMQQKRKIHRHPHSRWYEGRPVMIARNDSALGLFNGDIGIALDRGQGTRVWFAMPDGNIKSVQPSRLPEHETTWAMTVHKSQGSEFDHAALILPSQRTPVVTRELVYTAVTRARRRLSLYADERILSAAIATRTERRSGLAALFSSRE
T1 sequence (P07648 whole entry): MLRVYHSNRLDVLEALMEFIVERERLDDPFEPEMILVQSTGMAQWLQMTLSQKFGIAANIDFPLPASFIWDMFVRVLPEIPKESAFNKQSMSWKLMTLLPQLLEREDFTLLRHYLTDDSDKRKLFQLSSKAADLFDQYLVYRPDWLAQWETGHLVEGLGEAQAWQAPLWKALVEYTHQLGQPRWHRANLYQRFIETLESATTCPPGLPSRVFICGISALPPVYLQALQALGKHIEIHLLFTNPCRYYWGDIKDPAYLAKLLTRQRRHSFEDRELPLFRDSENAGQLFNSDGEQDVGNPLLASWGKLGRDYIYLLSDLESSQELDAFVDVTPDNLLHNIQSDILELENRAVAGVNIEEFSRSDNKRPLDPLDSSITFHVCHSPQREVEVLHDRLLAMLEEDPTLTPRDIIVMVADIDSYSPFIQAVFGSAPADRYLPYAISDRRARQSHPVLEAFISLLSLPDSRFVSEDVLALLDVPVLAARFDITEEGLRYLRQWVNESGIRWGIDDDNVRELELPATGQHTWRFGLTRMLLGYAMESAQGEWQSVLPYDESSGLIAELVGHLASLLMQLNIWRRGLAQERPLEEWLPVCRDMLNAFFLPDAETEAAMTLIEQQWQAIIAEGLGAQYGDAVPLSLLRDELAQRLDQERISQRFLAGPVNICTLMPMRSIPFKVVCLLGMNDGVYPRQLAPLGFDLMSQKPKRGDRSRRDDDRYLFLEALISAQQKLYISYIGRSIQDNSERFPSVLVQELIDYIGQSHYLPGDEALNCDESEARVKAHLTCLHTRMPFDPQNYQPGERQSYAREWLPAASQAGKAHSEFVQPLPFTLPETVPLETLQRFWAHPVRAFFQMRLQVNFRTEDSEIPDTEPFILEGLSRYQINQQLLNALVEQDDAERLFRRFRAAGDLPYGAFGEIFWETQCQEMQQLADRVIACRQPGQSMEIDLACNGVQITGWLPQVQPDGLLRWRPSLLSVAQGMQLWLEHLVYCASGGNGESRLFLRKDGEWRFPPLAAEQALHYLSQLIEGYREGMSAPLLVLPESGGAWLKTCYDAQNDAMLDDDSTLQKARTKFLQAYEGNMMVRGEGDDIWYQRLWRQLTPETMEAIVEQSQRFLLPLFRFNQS
T1 sequence (P08394 whole entry): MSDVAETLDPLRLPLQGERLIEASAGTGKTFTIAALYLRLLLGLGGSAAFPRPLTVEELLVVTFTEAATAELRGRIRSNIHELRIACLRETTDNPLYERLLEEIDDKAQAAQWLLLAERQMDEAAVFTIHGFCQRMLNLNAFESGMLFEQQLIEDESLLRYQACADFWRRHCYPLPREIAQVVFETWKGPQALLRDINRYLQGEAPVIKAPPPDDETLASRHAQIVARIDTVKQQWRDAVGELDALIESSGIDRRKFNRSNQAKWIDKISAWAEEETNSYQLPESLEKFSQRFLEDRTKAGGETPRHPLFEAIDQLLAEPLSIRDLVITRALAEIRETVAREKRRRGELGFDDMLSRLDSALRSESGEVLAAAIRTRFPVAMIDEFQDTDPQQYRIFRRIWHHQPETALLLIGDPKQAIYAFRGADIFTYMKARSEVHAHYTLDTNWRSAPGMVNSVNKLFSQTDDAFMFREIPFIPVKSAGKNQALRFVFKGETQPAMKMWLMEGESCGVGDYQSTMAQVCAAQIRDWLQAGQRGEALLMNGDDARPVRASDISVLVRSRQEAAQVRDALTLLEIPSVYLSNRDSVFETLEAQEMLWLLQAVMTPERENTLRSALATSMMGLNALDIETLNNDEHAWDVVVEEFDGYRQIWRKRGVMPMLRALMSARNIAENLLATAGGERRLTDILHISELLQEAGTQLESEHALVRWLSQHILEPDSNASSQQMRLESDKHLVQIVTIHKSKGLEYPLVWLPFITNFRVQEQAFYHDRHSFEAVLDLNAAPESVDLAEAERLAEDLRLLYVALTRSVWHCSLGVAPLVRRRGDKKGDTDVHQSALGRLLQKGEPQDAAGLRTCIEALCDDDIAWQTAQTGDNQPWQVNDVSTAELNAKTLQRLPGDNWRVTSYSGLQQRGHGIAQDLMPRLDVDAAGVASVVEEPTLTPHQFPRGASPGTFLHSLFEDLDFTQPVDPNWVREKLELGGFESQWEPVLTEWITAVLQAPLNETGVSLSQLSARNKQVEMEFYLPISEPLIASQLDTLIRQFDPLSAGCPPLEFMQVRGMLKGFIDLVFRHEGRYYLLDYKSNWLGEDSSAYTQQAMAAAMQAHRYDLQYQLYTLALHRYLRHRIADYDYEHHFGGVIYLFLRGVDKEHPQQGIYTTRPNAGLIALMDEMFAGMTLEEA
As to the kind of experiment: E. coli RecBCD inhibitors, dose response, counter-screen for AddAB inhibitor project, absorbance, V66 E. coli, mutant T4 phage (AID 492957). In kind it is functional, cell-based, Escherichia coli str. K-12 substr. MG1655.

Test [6] concerns the target Heat shock protein HSP 90-alpha (Homo sapiens, UniProt P07900). In kind it is functional, organism-based.
For a further test, the system named is Streptococcus. As to the kind of experiment: Group A Streptococcus viability loss, dose response, counter-screen for streptokinase expression inhibitor project, luminescence, BacTiterGlo (AID 1915).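 Note: potency for reduction of bacterial viability or growth.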 In kind it is functional, organism-based. A general note: Counterscreens check selectivity or assay interference.
A short description of test [7]: inhibitors of intracellular T. cruzi replication, confirmation, NIH3T3 host cells, beta-gal luminescence (AID 2044).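 Note: intracellular parasites grown in NIH/3T3 mouse fibroblasts as host cells; luminescent beta-galactosidase reporter signal from transgenic T. cruzi replicating inside host cells; inhibitors lower the luminescence signal.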 It counts as functional, cell-based.
Test [8] can be described thus: cytotoxicity toward NIH3T3 fibroblasts, dose response, counter-screen, cell-based, ATP luminescence, mouse fibroblasts (AID 2010).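 Note: cells exposed to compound for about 90 hours before reading.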 It counts as functional.
The next test deals with T2, Streptokinase A (Streptococcus pyogenes serotype M1, UniProt P10520).
T2 sequence (P10520 whole entry): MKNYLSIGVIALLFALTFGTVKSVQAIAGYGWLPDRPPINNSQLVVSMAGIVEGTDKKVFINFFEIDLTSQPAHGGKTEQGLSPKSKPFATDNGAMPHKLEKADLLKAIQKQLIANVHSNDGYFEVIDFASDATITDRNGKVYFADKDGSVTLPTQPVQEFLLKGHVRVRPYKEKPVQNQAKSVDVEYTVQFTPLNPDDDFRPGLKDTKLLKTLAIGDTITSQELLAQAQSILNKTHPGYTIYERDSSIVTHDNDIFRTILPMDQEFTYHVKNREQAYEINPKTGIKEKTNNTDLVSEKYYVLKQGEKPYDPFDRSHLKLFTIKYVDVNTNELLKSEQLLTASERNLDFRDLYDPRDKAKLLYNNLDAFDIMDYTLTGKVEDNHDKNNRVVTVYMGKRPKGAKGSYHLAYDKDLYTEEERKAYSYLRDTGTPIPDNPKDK
The experiment in a line: S. pyogenes streptokinase expression inhibitors, potency, dose response, plasminogen activation absorbance, OD405 (AID 1914).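 Note: secreted streptokinase activity via plasminogen activation per viability signal from cell pellet.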 It counts as functional, Streptococcus pyogenes M1 GAS.

The test system of test [9] is Streptococcus sp. 'group A'. As to the kind of experiment: growth inhibition of control SK(-) GAS strain, dose response, counter-screen for streptokinase expression inhibitor project, luminescence, kanamycin, BacTiterGlo, confirmation (AID 1900). It counts as functional, organism-based.
Test [10] has as its system Vero. As to the kind of experiment: cells. In kind it is functional. The settings on record: Chlorocebus sabaeus.
The target of test [11] is T3, Short transient receptor potential channel 4 (Mus musculus, UniProt Q9QUQ5).
T3 sequence (Q9QUQ5 whole entry): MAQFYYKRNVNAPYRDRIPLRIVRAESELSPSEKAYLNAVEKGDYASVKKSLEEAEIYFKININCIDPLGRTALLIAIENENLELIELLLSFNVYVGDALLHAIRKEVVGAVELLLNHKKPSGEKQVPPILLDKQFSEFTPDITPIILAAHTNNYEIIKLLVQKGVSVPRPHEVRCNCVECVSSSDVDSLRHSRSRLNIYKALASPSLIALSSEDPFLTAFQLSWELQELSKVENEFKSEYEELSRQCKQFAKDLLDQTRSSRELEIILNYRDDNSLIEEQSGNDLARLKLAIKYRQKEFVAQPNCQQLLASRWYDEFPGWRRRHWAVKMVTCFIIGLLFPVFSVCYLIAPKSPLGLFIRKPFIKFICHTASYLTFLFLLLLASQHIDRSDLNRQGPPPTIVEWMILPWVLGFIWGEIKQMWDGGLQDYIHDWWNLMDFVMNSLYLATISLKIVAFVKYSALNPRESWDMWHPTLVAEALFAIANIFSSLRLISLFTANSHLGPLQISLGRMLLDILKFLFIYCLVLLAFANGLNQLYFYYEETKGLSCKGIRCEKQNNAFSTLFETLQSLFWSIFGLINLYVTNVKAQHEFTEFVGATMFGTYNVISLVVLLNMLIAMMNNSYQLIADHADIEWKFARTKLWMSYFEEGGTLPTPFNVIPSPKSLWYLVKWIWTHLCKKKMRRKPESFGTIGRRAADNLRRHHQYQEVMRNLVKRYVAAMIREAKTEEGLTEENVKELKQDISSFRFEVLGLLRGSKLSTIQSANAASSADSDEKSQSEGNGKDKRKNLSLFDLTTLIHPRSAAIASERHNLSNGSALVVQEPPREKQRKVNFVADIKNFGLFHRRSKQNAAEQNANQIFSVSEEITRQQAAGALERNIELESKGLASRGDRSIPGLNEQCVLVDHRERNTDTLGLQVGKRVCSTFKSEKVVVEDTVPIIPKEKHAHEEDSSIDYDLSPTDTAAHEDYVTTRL
The experiment in a line: mouse TRPC4 channel activators, dose response, cell-based, HEK293 TRPC4/mu-opioid, Fluo-4 calcium (AID 434937). It counts as functional.

The subject of test [12] is Vero. As to the kind of experiment: cells. In kind it is functional, cell-based. The settings on record: Chlorocebus sabaeus.

The structures appear in SMILES notation. Activity calls are given as the source filed them. A value given as a limit tells only on which side of the number the result lay.

As a reminder, the AC50 is the midpoint of the concentration-response curve, whichever way the signal moves. The term IC50 denotes the concentration that inhibits the measured activity by half. Usually CC50 stands for the concentration that lowers cell viability or growth by half. As a reminder, the EC50 is the concentration at which the effect is half-maximal.

`CCN(CC)CCNCc1ccc(-c2ccc(Cl)cc2)o1`: the figures for the AC50 in [1] and in test [2] were 8.94 µM (active) and 20.9 µM (active), respectively.

As to `NC(=NOC(=O)c1ccccc1Cl)c1ncc([N+](=O)[O-])s1`, the IC50 was 3.81 µM (active) in the test “cells”, > 119 µM (inactive) in [5] and > 119 µM (inactive) at Exodeoxyribonuclease V. Also, the CC50 in [3] is > 20 µM (active); in test [4] it was 34.4 µM (active).

Turning to `CCCC(=O)NC(c1ccco1)c1cc(Cl)c2cccnc2c1O` (stereo not drawn), the AC50 in test [6] is 4.25 µM (active). In addition, the EC50 is 32 µM (active) in the test with Streptococcus; 3.44 µM (active) in test [7]; 5.04 µM (active) in [8]; > 150 µM (not active) on Streptokinase A; 1.18 µM (active) in test [9]. Further, the IC50 (in test [5]; on Exodeoxyribonuclease V) was > 119 µM (inactive) each time.

Consider `COc1ccc(CCNC(=O)c2cc(-c3ccc(Cl)c(Cl)c3)oc2C)cc1`, for which the EC50 with Streptococcus is 22.4 µM (active); on Streptokinase A it was 6.21 µM (inconclusive); in test [9], 7.72 µM (active). In addition, the AC50 in test [1] was 3.04 µM (active); in [2], 48.4 µM (active).

`c1ccc(Nc2nc(Nc3ccccc3)nc(N3CCNCC3)n2)cc1`: the values for the 50% cytotoxic concentration (CC50) (in the test with Vero [10]; in test [3]; in [4]) were 22.6 µM (active), > 20 µM (active) and 23 µM (active), respectively. In addition, the IC50 in “cells” was 26.5 µM (active); in the test with Vero [12] it was > 25 µM (active). Besides, the EC50 in test [11] is 3.35 µM (active).

With `COc1ccc2nc(NC(=O)CCNC(=O)c3ccco3)sc2c1`, the IC50 (in [5]; at Exodeoxyribonuclease V) was > 119 µM (inactive) each time.

The values above are taken from ChEMBL document CHEMBL1201862, “PubChem BioAssay data set” (2004).
